The source of these data is patent US20240182427A1, “SOLID DOSAGE FORMS OF A PLASMA KALLIKREIN INHIBITOR” (Rezolute, Inc., priority 2022, published 2024).

By solubility is commonly meant the dissolved amount per volume that the medium holds.

Data set [1] is described as follows: Intestinal permeability / solubility classification (BCS).
Data set [2] can be described thus: Aqueous solubility of anhydrous Crystalline Form I. To be noted: water (aqueous); anhydrous Crystalline Form I of acetate salt, at 25° C. Type of data set: physicochemical.
Data set [3] has as its system angiotensin-II-treated rodents. The conditions noted are these: cited from earlier work.
Data set [4] deals with rat model of ischemic stroke. The conditions noted are these: cited from earlier work.
Data set [5] deals with model of hemorrhagic stroke. The conditions noted are these: cited from earlier work.
Data set [6] has as its system patients with hereditary angioedema. To be noted: cited from earlier work.
The test system of data set [7] is animal model of ischemic stroke. To be noted: cited from earlier work.
Data set [8] relates to mouse model of middle cerebral artery occlusion. The conditions noted are these: cited from earlier work.

Consider `N=C(N)c1ccc(CNC(=O)c2cnn(Cc3ccccc3)c2)cc1` [Compound 1, 1-benzyl-1H-pyrazole-4-carboxylic acid 4-carbamimidoylbenzylamide], for which, in data set [1], the BCS class result is “BCS Class 3” and the solubility entry is recorded as “high”. The solubility in data set [2] was about 8300 µg/mL. Further, in data set [3], the retinal vascular permeability entry is “reduce”. Also, in data set [4], the cerebrovascular edema entry is on record as “reduce” and the infarction volume result is listed as “reduce”. Besides, in data set [5], the “expansion of intracerebral hemorrhage” value is recorded as “reduce”.

`NC(N)=NCCC[C@@H](N)C(=O)N[C@@H](CCCN=C(N)N)C(=O)N1CCC[C@H]1C(=O)N1C[C@H](O)C[C@H]1C(=O)NCC(=O)N[C@@H](Cc1cccs1)C(=O)N[C@@H](CO)C(=O)N1Cc2ccccc2C[C@@H]1C(=O)N1[C@H](C(=O)N[C@@H](CCCN=C(N)N)C(=O)O)C[C@@H]2CCCC[C@@H]21` [icatibant]: the treating hereditary angioedema result in data set [6] (human, in vivo) was “effective”.

With Hoe-140 [reference compound], the retinal vascular permeability entry in data set [3] is recorded as “reduce”.

ecallantide: the “edema in patients with hereditary angioedema” value in data set [6] (patients) is given as “alleviates”. In data set [7], the brain edema entry is recorded as “reduced”, the infarct volume result is on record as “reduced” and the neurological deficits result was “reduced”.

B1: C1-INH: the major endogenous inhibitor of PK (protein, UniProt P05155 23-500, looked up)
Plasma protease C1 inhibitor: NPNATSSSSQDPESLQDRGEGKVATTVISKMLFVEPILEVSSLPTTNSTTNSATKITANTTDEPTTQPTTEPTTQPTIQPTQPTTQLPTDSPTQPTTGSFCPGPVTLCSDLESHSTEAVLGDALVDFSLKLYHAFSAMKKVETNMAFSPFSIASLLTQVLLGAGENTKTNLESILSYPKDFTCVHQALKGFTTKGVTSVSQIFHSPDLAIRDTFVNASRTLYSSSPRVLSNNSDANLELINTWVAKNTNNKISRLLDSLPSDTRLVLLNAIYLSAKWKTTFDPKKTRMEPFHFKNSVIKVPMMNSKKYPVAHFIDQTLKAKVGQLQLSHNLSLVILVPQNLKHRLEDMEQALSPSVFKAIMEKLEMSKFQPTLLTLPRIKVTTSQDMLSIMEKLEFFDFSYDLNLCGLTEDPDLQVSAMQHQTVLELTETGVEAAAASAISVARTLLVFEVQQPFLFVLWDQQHKFPVFMGRVYDPRA
For B1, the infarct size result in data set [8] was “reduced”.
